Laboratory results published in PubChem BioAssay (NCI).
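Protocol summary: plate cells (96-well), add compound at 5 concentrations, incubate 48 h, interpolate endpoints linearly. TGI: concentration producing complete growth inhibition.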

Tests used:
Experiment in all cases: growth of human tumour cells (NCI), 48 h
[1] = system: SW-620 colon
[2] = system: MALME-3M melanoma
[3] = system: CCRF-CEM leukemia
[4] = system: NCI/ADR-RES ovarian
[5] = system: SN12C renal
[6] = system: CAKI-1 renal
[7] = system: HCC-2998 colon
[8] = system: OVCAR-4 ovarian
[9] = system: OVCAR-5 ovarian
[10] = system: OVCAR-8 ovarian
[11] = system: HT29 colon
[12] = system: SK-MEL-5 melanoma
[13] = system: T-47D breast
[14] = system: SR leukemia
[15] = system: MCF7 breast
[16] = system: SNB-19 CNS
[17] = system: COLO 205 colon
[18] = system: HOP-92 NSCLC
[19] = system: DU-145 prostate
[20] = system: UACC-257 melanoma
[21] = system: EKVX NSCLC
[22] = system: SNB-75 CNS
[23] = system: HCT-15 colon
[24] = system: SF-539 CNS
[25] = system: IGROV1 ovarian
[26] = system: K-562 leukemia
[27] = system: NCI-H23 lung
[28] = system: UO-31 renal
[29] = system: MDA-MB-231 breast
[30] = system: A498 renal
[31] = system: SF-268 CNS
[32] = system: KM12 colon
[33] = system: NCI-H522 lung
[34] = system: SF-295 CNS
[35] = system: HCT-116 colon
[36] = system: LOX IMVI melanoma
[37] = system: SK-OV-3 ovarian
[38] = system: M14 melanoma
[39] = system: MDA-MB-435
[40] = system: MDA-N
[41] = system: UACC-62 melanoma
[42] = system: TK-10 renal
[43] = system: PC-3 prostate
[44] = system: ACHN renal
[45] = system: HS 578T breast
[46] = system: 786-0 renal
[47] = system: BT-549 breast
[48] = system: HL-60(TB) leukemia
[49] = system: NCI-H460 lung
[50] = system: U251 CNS
[51] = system: SK-MEL-28 melanoma
[52] = system: SK-MEL-2 melanoma
[53] = system: NCI-H226 lung
[54] = system: A549 NSCLC
[55] = system: OVCAR-3 ovarian
[56] = system: MOLT-4 leukemia
[57] = system: HOP-62 NSCLC

CCN1CC2(COC)C(O)CC(OC)C34C5CC6(O)C(OC)C=C(C5C6OC(=O)c5ccc(OC)c(OC)c5)C(C(OC)C23)C14 (stereo unspecified)
TGI [1]: > 7.5 µM | TGI [2]: > 7.5 µM | TGI [3]: > 7.5 µM | TGI [4]: > 7.5 µM | TGI [5]: > 7.5 µM | TGI [6]: > 7.5 µM | TGI [7]: > 7.5 µM | TGI [8]: > 7.5 µM | TGI [9]: > 7.5 µM | TGI [10]: > 7.5 µM | TGI [11]: > 7.5 µM | TGI [12]: > 7.5 µM | TGI [13]: > 7.5 µM | TGI [14]: > 7.5 µM | TGI [15]: > 7.5 µM | TGI [16]: > 7.5 µM | TGI [17]: > 7.5 µM | TGI [18]: > 7.5 µM | TGI [19]: > 7.5 µM | TGI [20]: > 7.5 µM | TGI [21]: > 7.5 µM | TGI [22]: > 7.5 µM | TGI [23]: > 7.5 µM | TGI [24]: > 7.5 µM | TGI [25]: > 7.5 µM | TGI [26]: > 7.5 µM | TGI [27]: > 7.5 µM | TGI [28]: > 7.5 µM | TGI [29]: > 7.5 µM | TGI [30]: > 7.5 µM | TGI [31]: > 7.5 µM | TGI [32]: > 7.5 µM | TGI [33]: > 7.5 µM | TGI [34]: > 7.5 µM | TGI [35]: > 7.5 µM | TGI [36]: > 7.5 µM | TGI [37]: > 7.5 µM | TGI [38]: > 7.5 µM | TGI [39]: > 7.5 µM | TGI [40]: > 7.5 µM | TGI [41]: > 7.5 µM | TGI [42]: > 7.5 µM | TGI [43]: > 7.5 µM | TGI [44]: > 7.5 µM | TGI [45]: > 7.5 µM | TGI [46]: > 7.5 µM | TGI [47]: > 7.5 µM | TGI [48]: > 7.5 µM | TGI [49]: > 7.5 µM | TGI [50]: > 7.5 µM | TGI [51]: > 7.5 µM | TGI [52]: > 7.5 µM | TGI [53]: > 7.5 µM | TGI [54]: > 7.5 µM

C=C[C@H]1CN2CCc3c([nH]c4cc(O)ccc34)[C@@H]2C[C@@H]1C[C@H]1c2[nH]c3ccccc3c2CCN1C
TGI [1]: 3.87 µM | TGI [2]: 26.9 µM | TGI [3]: 3.98 µM | TGI [4]: 24.6 µM | TGI [5]: 13.3 µM | TGI [6]: 14.6 µM | TGI [7]: 3.44 µM | TGI [8]: 18.7 µM | TGI [9]: 31.4 µM | TGI [10]: 11.8 µM | TGI [11]: 6.4 µM | TGI [12]: 3.14 µM | TGI [13]: 36.1 µM | TGI [14]: 6.41 µM | TGI [15]: 6.01 µM | TGI [16]: 17.6 µM | TGI [17]: 3.31 µM | TGI [18]: 8.08 µM | TGI [55]: 9.55 µM | TGI [19]: 33.9 µM | TGI [20]: 3.98 µM | TGI [21]: 20.1 µM | TGI [22]: 6.62 µM | TGI [23]: 6.54 µM | TGI [24]: 3.33 µM | TGI [25]: 3.39 µM | TGI [26]: 7.88 µM | TGI [27]: 31.8 µM | TGI [28]: 4.81 µM | TGI [29]: 16.9 µM | TGI [30]: 5.83 µM | TGI [31]: 15.8 µM | TGI [56]: 12.4 µM | TGI [32]: 9.13 µM | TGI [33]: 8.29 µM | TGI [34]: 9.15 µM | TGI [35]: 5.94 µM | TGI [36]: 9.67 µM | TGI [37]: 27.4 µM | TGI [38]: 3.14 µM | TGI [39]: 3.76 µM | TGI [40]: 3.22 µM | TGI [41]: 8.46 µM | TGI [42]: 22.1 µM | TGI [43]: 9.69 µM | TGI [57]: 9.37 µM | TGI [44]: 10.1 µM | TGI [45]: 11.1 µM | TGI [46]: 3.36 µM | TGI [47]: 27.2 µM | TGI [48]: 7.69 µM | TGI [49]: 4.96 µM | TGI [50]: 3.24 µM | TGI [51]: 3.27 µM | TGI [52]: 7.65 µM | TGI [53]: 36.3 µM | TGI [54]: 15 µM
